Values joined by “and” are separate entries in the source; they are usually repeats but may differ in a detail not shown here. Identical values can stand only once. Like-named read-outs stand apart in the source and are kept apart here.
How the values were obtained:
[1] = tested on: S. pneumoniae T14 capsule polysaccharide; format: cell-based, Streptococcus pneumoniae serotype 14
Method: FIGS. 1A-1D. Screen for azido sugar incorporation into S. pneumoniae T14 capsule polysaccharide. […] Bacteria were grown until the ΔOD600≥0 for >30 minutes, then lysed with 0.1% NLS for 30 minutes. Growth was measured offline using a spectrophotometer blanked with PBS at 600 nm. (FIG. 1A) azido incorporation into polysaccharide was then quantified via fluorescent labeling (FL) with normalization to refractive index (RI). MaxOD and End Of Fermentation time (EOF) are provided in (FIG. 1B) and (FIG. 1C), respectively. Polysaccharide was extracted using EtOH and CaCl2 and analyzed via SEC-RI for (FIG. 1D) polysaccharide titer. n=1-4, error bars=+/−StDev.
A SEC fluorescence and Refractive index assay (SEC-FL/RI) was used for azide measurement to confirm the incorporation of azide modification.
Click-It Cell Reaction Buffer kit and Alexa Fluor 488 Alkyne were purchased from Invitrogen.
The initial procedure when running the SEC-FL/RI was to prepare the sample to a target concentration of 0.01 mg/m by mixing a pre-diluted polysaccharide to the final target concentration with the Click Reaction mixture. The reaction mixture consisted of 2.67 mM CuSO4, 2.67 mg/mL cell additive reagent, and 20 uM Alexa Fluor Alkyne. This was mixed with the sample at a 3:1 ratio of reaction mixture to sample and incubated in the absence of light. Reactions were transferred to HPLC vials and ran on the SEC-FL/RI HPLC setup. The RI detector (RID) allowed for detection of the polysaccharide while the Fluorescence Detector (FLD) was used to determine the level of fluor incorporated into the polysaccharide sample. The ratio of the two peak areas gave a measurement for the amount of azide incorporated to the polysaccharide.
Later, in addition to the incubation of the sample for thirty minutes, a buffer exchange step was added that washed out the unreacted fluor as well as the reaction matrix reagents in order to improve the baselines of the FLD and RID during the HPLC run. This added greater resolution of the peak associated with the azide functionalized polysaccharide. The assay was useful for relative quantitation of azide incorporation into the polysaccharide but could not quantify an exact numerical concentration. To improve this aspect work was undertaken to use a polysaccharide with known levels of azido functionalization to make a standard curve that varied the % Azido while keeping the polysaccharide mass the same. This was done by mixing the known azido modified poly (polysaccharide) with specific amounts of native (unmodified) polysaccharide. A strong linear fit for the generated standard curve was seen.
The values for percent azide were able to be converted to a μM azide per mM polysaccharide by converting from % azide using the constant polysaccharide concentration.

S. pneumoniae T14 = assay: Growth of S. pneumoniae T14 in fermentation with azido sugar (OD600); format: cell-based, Streptococcus pneumoniae serotype 14; conditions: for MaxOD600 nm: production media + 2AzGlc (10 mM)
[2] = azido feed DOE: Gal 30 g/L, initial 2AzGlc 0 mM, 2AzGlc feed stock 4 mM, pH 7.33, 300 rpm
[3] = azido feed DOE: Gal 30 g/L, initial 2AzGlc 0 mM, 2AzGlc feed stock 6.5 mM, pH 7.33, 300 rpm
[4] = azido feed DOE: Gal 30 g/L, initial 2AzGlc 0.1 mM, 2AzGlc feed stock 4 mM, pH 7.33, 300 rpm
[5] = azido feed DOE: Gal 30 g/L, initial 2AzGlc 0.1 mM, 2AzGlc feed stock 6.5 mM, pH 7.33, 300 rpm
[6] = azido feed DOE: Gal 40 g/L, initial 2AzGlc 0 mM, 2AzGlc feed stock 4 mM, pH 7.33, 300 rpm
[7] = azido feed DOE: Gal 40 g/L, initial 2AzGlc 0 mM, 2AzGlc feed stock 6.5 mM, pH 7.33, 300 rpm
[8] = azido feed DOE: Gal 40 g/L, initial 2AzGlc 0.1 mM, 2AzGlc feed stock 4 mM, pH 7.33, 300 rpm
[9] = azido feed DOE: Gal 40 g/L, initial 2AzGlc 0.1 mM, 2AzGlc feed stock 6.5 mM, pH 7.33, 300 rpm
[10] = initial galactose 40 g/L, initial 2AzGlc 0.1 mM, 4.0 mM 2AzGlc feed stock
[11] = production medium + Galactose (30 g/L) + 2AzGlc (0.25 mM), pH 6.33, agitation 100 rpm
[12] = production medium + Galactose (30 g/L) + 2AzGlc (0.25 mM), pH 6.33, agitation 200 rpm
[13] = production medium + Galactose (30 g/L) + 2AzGlc (0.25 mM), pH 6.33, agitation 300 rpm
[14] = production medium + Galactose (30 g/L) + 2AzGlc (0.25 mM), pH 6.66, agitation 100 rpm
[15] = production medium + Galactose (30 g/L) + 2AzGlc (0.25 mM), pH 6.66, agitation 300 rpm
[16] = production medium + Galactose (30 g/L) + 2AzGlc (0.25 mM), pH 7, agitation 200 rpm
[17] = production medium + Galactose (30 g/L) + 2AzGlc (0.25 mM), pH 7.33, agitation 100 rpm
[18] = production medium + Galactose (30 g/L) + 2AzGlc (0.25 mM), pH 7.33, agitation 300 rpm

[N-]=[N+]=N[C@@H](C=O)[C@@H](O)[C@H](O)[C@H](O)CO [2AzGlc, 2-Azido-2-deoxy-D-glucose]
increase between lowest and higher FL/RI achieved ([1]; 2AzGlc titration 1-60 mM, production media + Glucose (dextrose, 30 g/L)): 10 fold
FL/RI [1, 2]: 101.45 and 103.61
FL/RI [1, 3]: 113.82 and 121.9
FL/RI [1, 4]: 116.16 and 116.31
FL/RI [1, 5]: 84.53 and 83.69
FL/RI [1, 6]: 97.04 and 114.22
FL/RI [1, 7]: 122.7 and 110.09
FL/RI [1, 8]: 125.02 and 122.41
FL/RI [1, 9]: 79.3 and 63.19
FL/RI ([1]; fed-batch, initial galactose 5.0 g/L, 0.25 mM 2AzGlc, galactose feed rate FR #1): 45
FL/RI ([1]; fed-batch, initial galactose 5.0 g/L, 0.25 mM 2AzGlc, galactose feed rate FR #2): 18
average FL/RI [1, 10]: 123.7
FL/RI ([1]; production media + 2AzGlc (10 mM), pH 6.33, agitation 100 rpm): 91.9 and 100.7
FL/RI ([1]; production media + 2AzGlc (10 mM), pH 6.33, agitation 300 rpm): 98.3 and 97.5
FL/RI ([1]; production media + 2AzGlc (10 mM), pH 6.66, agitation 200 rpm): 114.5 and 135.0
FL/RI ([1]; production media + 2AzGlc (10 mM), pH 7, agitation 100 rpm): 117.8 and 118.8
FL/RI ([1]; production media + 2AzGlc (10 mM), pH 7, agitation 300 rpm): 115.7 and 107.5
FL/RI ([1]; production media + 2AzGlc (10 mM), pH 7.33, agitation 100 rpm): 137.4 and 158.3
FL/RI ([1]; production media + 2AzGlc (10 mM), pH 7.33, agitation 200 rpm): 140.8 and 125.0
FL/RI ([1]; production media + 2AzGlc (10 mM), pH 7.33, agitation 300 rpm): 113.9 and 137.3
FL/RI ([1]; production media + Glucose (dextrose, 30 g/L), media pH 7, 2AzGlc 1 mM): 15
FL/RI ([1]; production media + Glucose (dextrose, 30 g/L), media pH 7, 2AzGlc 5 mM): 61
FL/RI ([1]; production media + Glucose (dextrose, 30 g/L), media pH 7, 2AzGlc 10 mM): 118
FL/RI ([1]; production media + Glucose (dextrose, 30 g/L), media pH 7, 2AzGlc 20 mM): 146
FL/RI ([1]; production media + Glucose (dextrose, 30 g/L), media pH 7.33, 2AzGlc 20 mM): 148
FL/RI ([1]; production media + Glucose (dextrose, 30 g/L), media pH 7.33, 2AzGlc 40 mM): 157
FL/RI ([1]; production media + Glucose (dextrose, 30 g/L), media pH 7.33, 2AzGlc 60 mM): 151
FL/RI [1, 11]: 51.73 and 50.26
FL/RI [1, 12]: 48.41
FL/RI [1, 13]: 45.24 and 44.39
FL/RI [1, 14]: 78.29
FL/RI [1, 15]: 77.94
FL/RI [1, 16]: 97.25
FL/RI [1, 17]: 101.26 and 88.76
FL/RI [1, 18]: 110 and 109.76 and 110.12
FL/RI ([1]; screen, azido sugar 1 mM, production medium + Glucose (dextrose, 30 g/L)): detectable
rate of galactose consumption, of the batch model (S. pneumoniae T14; 2AzGlc addition, production medium + Galactose (30 g/L)): ~70%
concentration at which negative effect on growth started (S. pneumoniae T14; 2AzGlc titration, production media + Glucose (dextrose, 30 g/L)): 20 mM
growth with increasing 2AzGlc concentrations (S. pneumoniae T14; 2AzGlc titration, production medium + Galactose (30 g/L)): negatively impacted
MaxOD (S. pneumoniae T14; [2]): 9.78 and 9.56
MaxOD (S. pneumoniae T14; [3]): 8.74 and 8.32
MaxOD (S. pneumoniae T14; [4]): 8.96 and 8.13
MaxOD (S. pneumoniae T14; [5]): 5.76 and 5.65
MaxOD (S. pneumoniae T14; [6]): 9.78 and 7.39
MaxOD (S. pneumoniae T14; [7]): 8.44 and 6.64
MaxOD (S. pneumoniae T14; [8]): 8.53 and 8.4
MaxOD (S. pneumoniae T14; [9]): 4.53 and 3.71
growth (S. pneumoniae T14; azido sugar 20 mM without DMSO, production medium + Galactose (30 g/L)): strongly inhibited
OD600 nm at which growth stopped (S. pneumoniae T14; fed-batch, initial galactose 5.0 g/L, 0.25 mM 2AzGlc, regardless of feed rate): 3.0
maximum OD600 nm (average) (S. pneumoniae T14; [10]): 8.5
MaxOD600 nm (S. pneumoniae T14; pH 6.66, agitation 200 rpm): 11.7
MaxOD600 nm (S. pneumoniae T14; pH 7, agitation 300 rpm): 11.3 and 12.9
MaxOD600 nm (S. pneumoniae T14; pH 7.33, agitation 300 rpm): 10.5 and 10.4
MaxOD (S. pneumoniae T14; [11]): 6.98 and 6.76
MaxOD (S. pneumoniae T14; [12]): 6.81
MaxOD (S. pneumoniae T14; [13]): 6.05 and 5.89
MaxOD (S. pneumoniae T14; [14]): 8.96
MaxOD (S. pneumoniae T14; [15]): 9.1
MaxOD (S. pneumoniae T14; [16]): 9.38
MaxOD (S. pneumoniae T14; [17]): 8.43 and 8.23
MaxOD (S. pneumoniae T14; [18]): 8.54 and 8.26
maximum OD (S. pneumoniae T14; screen, azido sugar 1 mM, only in production medium + Galactose): reduced

Source: US20250163484A1, “Methods for Incorporating Azido Groups in Bacterial Capsular Polysaccharides” (PFIZER INC., priority 2022, published 2025)
